Source: patent US10259810B2, “N-sulfonylated pyrazolo[3,4-b]pyridin-6-carboxamides and method of use” (AbbVie S.à.r.l., priority 2015, dated 2019)

Legend:
Type in all cases: cell-based
[1] = molecular target: T1, CFTR ΔF508 (Homo sapiens, UniProt P13569, DEL508-508); assay: Chronic TECC assay, primary bronchial epithelial cells of CF patients homozygous for CFTR ΔF508 (corrector, co-corrector and potentiator); details: chronic TECC, AUC = full area under the curve upon forskolin stimulation; for EC50: read-out: EC50 (nM) (AUC**); for % Activity at 1 μM (AUC**): test compound at 1 μM; for % Activity at 3 μM (AUC**): test compound at 3 μM
T1 construct: bronchial epithelial cells isolated from CF patients homozygous for the CFTR ΔF508 mutation; McGill University; Asterand; University of North Carolina hAEC-CF; host or cells: primary human bronchial epithelial cells from CF patients homozygous for ΔF508, differentiated at air-liquid interface
In short: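 Primary bronchial epithelial cells from ΔF508-homozygous CF patients on collagen IV-coated Transwells were chronically treated with test compound plus corrector and potentiator, which were re-added before recording. Ieq was derived from PD and Rt in NaCl-Ringer, pH 7.4, at 37° C, with apical amiloride and bilateral forskolin, recorded every 2 min over 20 min. Ieq increase was normalized to controls, and EC50 was taken from per-well concentrations.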

[2] = molecular target: T2, ΔF508-CFTR (Homo sapiens, UniProt P13569, DEL508-508); assay: CFTR cell surface levels using HRP-tagged ΔF508-CFTR expressing CFBE cells, in the presence of a co-corrector; details: HRP-tagged ΔF508-CFTR CFBE cells, in the presence of 3 μM co-corrector; for EC50: read-out: EC50
T2 construct: host or cells: CFBE41o-, doxycycline-inducible
In short: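 Chemiluminescent read-out of surface HRP (15 min, dark) after PBS washes. Activity is normalized as 100×(sample−DMSO)/(3 μM co-corrector alone−DMSO).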

[3] = molecular target: T2, ΔF508-CFTR; assay: CFTR cell surface levels using HRP-tagged ΔF508-CFTR expressing CFBE cells, intrinsic corrector capacity; set-up: % Activation: concentration or dose not given beside the values; details: HRP-tagged ΔF508-CFTR expressing CFBE41o- cells, compound alone (intrinsic corrector capacity), 20 hours at 33° C.; for EC50: read-out: EC50
In short: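 Surface ΔF508-CFTR was measured as HRP chemiluminescence from an extracellular-loop-4 tag, expressed as percent activity between DMSO and a […] corrector control.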

T1 sequence (P13569 with tags, fused parts or gaps DEL508-508): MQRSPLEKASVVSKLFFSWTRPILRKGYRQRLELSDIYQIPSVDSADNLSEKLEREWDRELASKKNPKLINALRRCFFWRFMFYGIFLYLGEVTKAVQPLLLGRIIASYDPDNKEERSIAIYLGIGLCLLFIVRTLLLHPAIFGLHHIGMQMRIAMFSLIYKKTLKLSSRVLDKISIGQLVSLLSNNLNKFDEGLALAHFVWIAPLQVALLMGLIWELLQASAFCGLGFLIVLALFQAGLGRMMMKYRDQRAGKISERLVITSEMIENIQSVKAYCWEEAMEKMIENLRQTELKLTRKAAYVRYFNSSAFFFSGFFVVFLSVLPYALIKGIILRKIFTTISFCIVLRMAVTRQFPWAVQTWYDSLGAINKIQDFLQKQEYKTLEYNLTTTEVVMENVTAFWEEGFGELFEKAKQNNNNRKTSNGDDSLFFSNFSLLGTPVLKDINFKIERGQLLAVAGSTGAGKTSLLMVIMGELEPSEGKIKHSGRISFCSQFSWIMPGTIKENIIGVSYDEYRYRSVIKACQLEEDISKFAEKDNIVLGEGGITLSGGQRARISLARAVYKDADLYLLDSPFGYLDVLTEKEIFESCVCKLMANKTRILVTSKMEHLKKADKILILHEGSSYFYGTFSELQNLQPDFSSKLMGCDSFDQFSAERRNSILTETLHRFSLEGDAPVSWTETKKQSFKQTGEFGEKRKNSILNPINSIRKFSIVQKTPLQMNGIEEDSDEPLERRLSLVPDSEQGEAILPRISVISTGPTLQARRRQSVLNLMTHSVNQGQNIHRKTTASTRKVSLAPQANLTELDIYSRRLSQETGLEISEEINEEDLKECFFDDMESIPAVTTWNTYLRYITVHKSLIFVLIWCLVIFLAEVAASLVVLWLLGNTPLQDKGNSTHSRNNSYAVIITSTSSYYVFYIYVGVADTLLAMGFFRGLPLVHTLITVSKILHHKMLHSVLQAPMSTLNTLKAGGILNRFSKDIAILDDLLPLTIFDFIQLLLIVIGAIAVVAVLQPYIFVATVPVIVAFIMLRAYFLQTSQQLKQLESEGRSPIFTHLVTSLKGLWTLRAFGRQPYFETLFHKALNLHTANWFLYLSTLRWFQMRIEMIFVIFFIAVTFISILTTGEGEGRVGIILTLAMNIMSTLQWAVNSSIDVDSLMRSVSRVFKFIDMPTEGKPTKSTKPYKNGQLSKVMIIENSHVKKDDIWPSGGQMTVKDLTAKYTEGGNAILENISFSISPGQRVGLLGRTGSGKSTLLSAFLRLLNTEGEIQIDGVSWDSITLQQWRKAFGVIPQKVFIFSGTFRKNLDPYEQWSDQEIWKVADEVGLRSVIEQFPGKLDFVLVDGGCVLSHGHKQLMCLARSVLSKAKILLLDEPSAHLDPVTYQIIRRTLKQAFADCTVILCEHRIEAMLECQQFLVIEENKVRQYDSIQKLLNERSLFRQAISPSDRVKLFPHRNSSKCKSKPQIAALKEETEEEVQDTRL
T2 sequence (P13569 with tags, fused parts or gaps DEL508-508): as above

Row | Structure (SMILES) | EC50 [1] [nM] | % Activity at 1 μM (AUC**) [1] [%] | % Activation [2] [%] | EC50 [2] [nM] | % Activation [3] [%] | EC50 [3] [nM] | % Activity at 3 μM (AUC**) [1] [%]
1 | COC1CCN(c2cc(C(=O)NS(C)(=O)=O)nc3c2c(C(C)C)nn3-c2ccnc(N3CCOCC3)c2)CC1 [Compound 187, N-(methanesulfonyl)-4-(4-methoxypiperidin-1-yl)-1-[2-(morpholin-4-yl)pyridin-4-yl]-3-(propan-2-yl)-1H-pyrazolo[3,4-b]pyridine-6-carboxamide] | > 1000 | 180 | 308.87 | 69.3 | 160 | 223 | –
2 | COCC1CCN(c2cc(C(=O)NS(=O)(=O)CCN(C)C)nc3c2c(C2CCC2)nn3-c2ccccc2)CC1 [Compound 273, 3-cyclobutyl-N-[2-(dimethylamino)ethanesulfonyl]-4-[4-(methoxymethyl)piperidin-1-yl]-1-phenyl-1H-pyrazolo[3,4-b]pyridine-6-carboxamide] | – | 197.06 | 344.05 | 111 | 182.4 | 562 | –
3 | CC(C)Oc1nn(C2CCCCC2)c2nc(C(=O)NS(C)(=O)=O)cc(-c3ccc(CN4CCOCC4)cc3)c12 [Compound 404, 1-cyclohexyl-N-(methanesulfonyl)-4-{4-[(morpholin-4-yl)methyl]phenyl}-3-[(propan-2-yl)oxy]-1H-pyrazolo[3,4-b]pyridine-6-carboxamide] | – | 433.3333 | 370 | 126 | 181.2 | 186 | –
4 | CC(C)c1nn(-c2cccc(N(C)C)c2)c2nc(C(=O)NS(C)(=O)=O)cc(N3CCC(C#N)CC3)c12 [Compound 160, 4-(4-cyanopiperidin-1-yl)-1-[3-(dimethylamino)phenyl]-N-(methanesulfonyl)-3-(propan-2-yl)-1H-pyrazolo[3,4-b]pyridine-6-carboxamide] | 160 | 190 | 490.4 | 202 | 285.57 | 309 | –
5 | COC1CCN(C2CCN(c3cc(C(=O)NS(=O)(=O)N4CCOCC4)nc4c3c(C3CCC3)nn4-c3ccc(F)cc3)CC2)CC1 [Compound 647, 3-cyclobutyl-1-(4-fluorophenyl)-4-(4-methoxy[1,4'-bipiperidin]-1'-yl)-N-(morpholine-4-sulfonyl)-1H-pyrazolo[3,4-b]pyridine-6-carboxamide] | 151 | – | 337.07 | 112 | 164.47 | 216 | 420.0246
6 | COC(=O)N1CCC(COc2cc(C(=O)NS(C)(=O)=O)nc3c2c(C2CCC2)nn3-c2ccccc2)CC1 [Compound 297, methyl 4-[({3-cyclobutyl-6-[(methanesulfonyl)carbamoyl]-1-phenyl-1H-pyrazolo[3,4-b]pyridin-4-yl}oxy)methyl]piperidine-1-carboxylate] | ≤ 30 | 470.97 | 423.43 | 77.2 | 193.9 | 99.2 | –
7 | CN(C)S(=O)(=O)NC(=O)c1cc(N2CCC(N3CCOCC3)CC2)c2c(C3CCC3)nn(-c3ccc4c(c3)OC(F)(F)O4)c2n1 [Compound 623, 3-cyclobutyl-1-(2,2-difluoro-2H-1,3-benzodioxol-5-yl)-N-(dimethylsulfamoyl)-4-[4-(morpholin-4-yl)piperidin-1-yl]-1H-pyrazolo[3,4-b]pyridine-6-carboxamide] | – | – | 424.77 | 55.6 | 238.53 | 113 | 433.3333
8 | CCS(=O)(=O)NC(=O)c1cc(N2CCN(c3ccncc3)CC2)c2c(C3CCC3)nn(C3CCCCC3)c2n1 [Compound 470, 3-cyclobutyl-1-cyclohexyl-N-(ethanesulfonyl)-4-[4-(pyridin-4-yl)piperazin-1-yl]-1H-pyrazolo[3,4-b]pyridine-6-carboxamide] | – | 210 | 485.5 | 115 | 275.4 | 231 | –
9 | CC(C1CCN(c2cc(C(=O)NS(C)(=O)=O)nc3c2c(C2CCC2)nn3-c2ccc(F)cc2)CC1)N1CCOCC1 (stereo not shown) [Compound 445, 3-cyclobutyl-1-(4-fluorophenyl)-N-(methanesulfonyl)-4-{4-[1-(morpholin-4-yl)ethyl]piperidin-1-yl}-1H-pyrazolo[3,4-b]pyridine-6-carboxamide] | – | 406.6667 | 671.25 | 59.1 | 393.1 | 111 | –
10 | CC(C)N1CCC2CN(c3cc(C(=O)NS(=O)(=O)N(C)C)nc4c3c(C3CCC3)nn4-c3ccc(F)cc3)CCC21 (stereo not shown) [Compound 625, 3-cyclobutyl-N-(dimethylsulfamoyl)-1-(4-fluorophenyl)-4-[1-(propan-2-yl)octahydro-5H-pyrrolo[3,2-c]pyridin-5-yl]-1H-pyrazolo[3,4-b]pyridine-6-carboxamide] | – | 403.3333 | 353.87 | 126 | 182.2 | 223 | –
11 | O=C(NS(=O)(=O)NC1CCOCC1)c1cc(N2CCC(N3CCOCC3)CC2)c2c(C3CCC3)nn(-c3ccc(F)cc3)c2n1 [Compound 578, 3-cyclobutyl-1-(4-fluorophenyl)-4-[4-(morpholin-4-yl)piperidin-1-yl]-N-[(oxan-4-yl)sulfamoyl]-1H-pyrazolo[3,4-b]pyridine-6-carboxamide] | – | 936.6667 | 462.3 | 108 | 309.25 | 152 | –
12 | CS(=O)(=O)NC(=O)c1cc(OC[C@@H](F)C2CCOCC2)c2c(C3CCC3)nn(-c3ccccc3)c2n1 [Compound 199, 3-cyclobutyl-4-[(2S)-2-fluoro-2-(oxan-4-yl)ethoxy]-N-(methanesulfonyl)-1-phenyl-1H-pyrazolo[3,4-b]pyridine-6-carboxamide] | > 1000 | 627.48 | 304.63 | 316 | 142.6 | 481 | –
13 | CN(C)S(=O)(=O)NC(=O)c1cc(N2CCC(N3CCC(F)C3)CC2)c2c(C3CCC3)nn(-c3ccc(F)cc3)c2n1 (stereo not shown) [Compound 541, 3-cyclobutyl-N-(dimethylsulfamoyl)-1-(4-fluorophenyl)-4-[4-(3-fluoropyrrolidin-1-yl)piperidin-1-yl]-1H-pyrazolo[3,4-b]pyridine-6-carboxamide] | – | 320 | 457.2 | 115 | 231.7 | 444 | –
14 | COCC1CCN(c2cc(C(=O)NS(=O)(=O)c3cnn(C)c3)nc3c2c(C2CCC2)nn3-c2ccccc2)CC1 [Compound 245, 3-cyclobutyl-4-[4-(methoxymethyl)piperidin-1-yl]-N-(1-methyl-1H-pyrazole-4-sulfonyl)-1-phenyl-1H-pyrazolo[3,4-b]pyridine-6-carboxamide] | – | 628.25 | 460 | 694 | 228 | 495 | –
15 | COCC1CCN(c2cc(C(=O)NS(=O)(=O)N3CCN(C)CC3)nc3c2c(C2CCC2)nn3-c2ccccc2)CC1 [Compound 400, 3-cyclobutyl-4-[4-(methoxymethyl)piperidin-1-yl]-N-(4-methylpiperazine-1-sulfonyl)-1-phenyl-1H-pyrazolo[3,4-b]pyridine-6-carboxamide] | – | 230 | 365.43 | 157 | 180.65 | 163 | –
16 | CS(=O)(=O)NC(=O)c1cc(-c2ccc(N3CCC(C#N)CC3)nc2)c2c(C3CCC3)nn(-c3ccnc(N4CCOCC4)c3)c2n1 [Compound 201, 4-[6-(4-cyanopiperidin-1-yl)pyridin-3-yl]-3-cyclobutyl-N-(methanesulfonyl)-1-[2-(morpholin-4-yl)pyridin-4-yl]-1H-pyrazolo[3,4-b]pyridine-6-carboxamide] | < 300 | 250 | 379.9 | 292 | 200.8 | 402 | –
17 | CN(C)S(=O)(=O)NC(=O)c1cc(N2CCC(N3CCOCC3)CC2)c2c(C3CCC3)nn(C3CCCCC3)c2n1 [Compound 420, 3-cyclobutyl-1-cyclohexyl-N-(dimethylsulfamoyl)-4-[4-(morpholin-4-yl)piperidin-1-yl]-1H-pyrazolo[3,4-b]pyridine-6-carboxamide] | – | 223.3333 | 486.65 | 209 | 283.1 | 472 | –
